*: point of attachment. Myristoyl = CCCCCCCCCCCCCC(=O)*
Test system: integrin β4^+ DLEP cells
Test: Isolated integrin β4+ DLEP cell colony proliferation in matrigel
Format: cell-based, mouse
Details: for number of β4+ colonies: PKCζi 520 nM, two weeks, media with 20% BALF from bleomycin injured mice, vs PBS and DMSO
From the text: (8) PKC-ζi promotes proliferation of distal lung epithelial progenitor cells. Recently Chapman et al reported that integrin α6β4 identifies a population of lung cells with regenerative potential in mice (Chapman et al. (2011). “Integrin alpha6beta4 identifies an adult distal lung epithelial population with regenerative potential in mice.” J Clin Invest 121(7): 2855-2862). Furthermore, Li et al, reported same population in human lungs (Li et al. (2013). “Integrin alpha6beta4 identifies human distal lung epithelial progenitor cells with potential as a cell-based therapy for cystic fibrosis lung disease.” PLoS One 8(12): e83624). Therefore, the inventors set out to examine by immunofluorescence the presence of these cells in mouse lungs at 3 and 6 weeks after bleomycin treatment. […] In addition, the inventors isolated mouse α6β4 cells and treated them for 2 weeks with PKC-ζi ([…]).
Integrin β4^+ cells were isolated using flow cytometry and were seeded in matrigel as previously described with modifications (23). Cells were grown for two weeks in the presence of PBS, DMSO (1:1000) or PKCζi (1:1000, 520 nM final concentration PKC). In order to recreate the microenvironment, the media was supplemented with 20% BALF from bleomycin treated mice from week 1 similar to previously described (4).
To test the hypothesis that PKCζ can promote proliferation of β4^+ DLEP cells, integrin β4^+ cells were isolated and the media was supplemented with BALF from bleomycin treated mice from week 1 in the presence of PBS, DMSO or […], in order to recreate the microenvironment in a similar approach as Vaughan and colleagues (4). […] As shown in FIGS. 5 C & D, PKCζi increased proliferation of DLEP integrin β4^+ cells in vitro compared to control.

N-Myristoyl-Ser-Ile-Tyr-Arg-Arg-Gly-Ala-Arg-Arg-Trp-Arg-Lys-Leu-OH (Myristoyl-SIYRRGARRWRKL-OH; SMILES CCCCCCCCCCCCCC(=O)N[C@@H](CO)C(=O)N[C@H](C(=O)N[C@@H](Cc1ccc(O)cc1)C(=O)N[C@@H](CCCNC(=N)N)C(=O)N[C@@H](CCCNC(=N)N)C(=O)NCC(=O)N[C@@H](C)C(=O)N[C@@H](CCCNC(=N)N)C(=O)N[C@@H](CCCNC(=N)N)C(=O)N[C@@H](Cc1c[nH]c2ccccc12)C(=O)N[C@@H](CCCNC(=N)N)C(=O)N[C@@H](CCCCN)C(=O)N[C@@H](CC(C)C)C(=O)O)[C@@H](C)CC) [PKCζi]
number of isolated mouse α6β4 cells (Example 1, treated for 2 weeks, concentration not given, vs DMSO): increased the number of α6β4 cells compared to DMSO treated cells
number of β4+ colonies: increased number of large colonies compared to either DMSO or the PBS group
number of β4+ colonies (listed as PKC-ζi): increased the number of β4^+ colonies compared to PBS and DMSO at week 2

From US10328114B2, “Lung injury repair compositions and methods” (University of Iowa Research Foundation, priority 2015, dated 2019)
